target: human NaV subtype; experiment: E-VIPR optical membrane potential assay with electrical stimulation; format: cell-based; conditions: active against one or more sodium channels; assay and NaV subtype not specified for Table 3; read-out: Binned Activity Data (IC50)
Description: E-VIPR Optical Membrane Potential Assay Method with Electrical Stimulation
Sodium channels are voltage-dependent proteins that can be activated by inducing membrane voltage changes by applying electric fields. The electrical stimulation instrument and methods of use are described in Ion Channel Assay Methods PCT/US01/21652, herein incorporated by reference and are referred to as E-VIPR. The instrument comprises a microtiter plate handler, an optical system for exciting the coumarin dye while simultaneously recording the coumarin and oxonol emissions, a waveform generator, a current- or voltage-controlled amplifier, and a device for inserting electrodes in well. Under integrated computer control, this instrument passes user-programmed electrical stimulus protocols to cells within the wells of the microtiter plate.
24 hours before the assay on E-VIPR, HEK cells expressing human NaV subtype, like NaV 1.7, are seeded in 384-well poly-lysine coated plates at 15,000-20,000 cells per well. Other subtypes are performed in an analogous mode in a cell line expressing the NaV of interest. HEK cells are grown in media (exact composition is specific to each cell type and NaV subtype) supplemented with 10% FBS (Fetal Bovine Serum, qualified; GibcoBRL #16140-071) and 1% Pen-Strep (Penicillin-Streptomycin; GibcoBRL #15140-122). Cells are grown in vented cap flasks, in 90% humidity and 10% CO2, to 100% confluence. They are usually split by trypsinization 1:10 or 1:20, depending on scheduling needs, and grown for 2-3 days before the next split.
100 mg/mL Pluronic F-127 (Sigma #P2443), in dry DMSO
Compound Plates: 384-well round bottom plate, e.g. Corning 384-well Polypropylene Round Bottom #3656
Cell Plates: 384-well tissue culture treated plate, e.g. Greiner #781091-1B
Bath1 buffer. Glucose 10 mM (1.8 g/L), Magnesium Chloride (Anhydrous), 1 mM (0.095 g/L), Calcium Chloride, 2 mM (0.222 g/L), HEPES 10 mM (2.38 g/L), Potassium Chloride, 4.5 mM (0.335 g/L), Sodium Chloride 160 mM (9.35 g/L).
Hexyl Dye Solution: Bath1 Buffer+0.5% β-cyclodextrin (make this prior to use, Sigma #C4767), 8 μM CC2-DMPE+DiSBAC6(3). To make the solution Add volume of 10% Pluronic F127 stock equal to volumes of CC2-DMPE+DiSBAC6(3). The order of preparation is first mix Pluronic and CC2-DMPE, then add DiSBAC6(3) while vortexing, then add Bath1+β-Cyclodextrin.
1) Pre-spot compounds (in neat DMSO) into compound plates. Vehicle control (neat DMSO), the positive control (20 mM DMSO stock tetracaine, 125 μM final in assay) and test compounds are added to each well at 160× desired final concentration in neat DMSO. Final compound plate volume will be 80 μL (80-fold intermediate dilution from 1 μL DMSO spot; 160-fold final dilution after transfer to cell plate). Final DMSO concentration for all wells in assay is 0.625%.
2) Prepare Hexyl Dye Solution.
3) Prepare cell plates. On the day of the assay, medium is aspirated and cells are washed three times with 100 μL of Bathl Solution, maintaining 25 μL residual volume in each well.
4) Dispense 25 μL per well of Hexyl Dye Solution into cell plates. Incubate for 20-35 minutes at room temp or ambient conditions.
5) Dispense 80 μL per well of Bathl into compound plates. Acid Yellow-17 (1 mM) is added and Potassium Chloride can be altered from 4.5 to 20 mM depending on the NaV subtype and assay sensitivity.
6) Wash cell plates three times with 100 μL per well of Bathl, leaving 25 μL of residual volume. Then transfer 25 uL per well from Compound Plates to Cell Plates. Incubate for 20-35 minutes at room temp/ambient condition
7) Read Plate on E-VIPR. Use the current-controlled amplifier to deliver stimulation wave pulses for typically 9 seconds and a scan rate of 400 Hz. A pre-stimulus recording is performed for 0.5 seconds to obtain the un-stimulated intensities baseline. The stimulatory waveform is applied for 9 seconds followed by 0.5 seconds of post-stimulation recording to examine the relaxation to the resting state. […]

human NaV subtype, sequence (Q15858 whole entry): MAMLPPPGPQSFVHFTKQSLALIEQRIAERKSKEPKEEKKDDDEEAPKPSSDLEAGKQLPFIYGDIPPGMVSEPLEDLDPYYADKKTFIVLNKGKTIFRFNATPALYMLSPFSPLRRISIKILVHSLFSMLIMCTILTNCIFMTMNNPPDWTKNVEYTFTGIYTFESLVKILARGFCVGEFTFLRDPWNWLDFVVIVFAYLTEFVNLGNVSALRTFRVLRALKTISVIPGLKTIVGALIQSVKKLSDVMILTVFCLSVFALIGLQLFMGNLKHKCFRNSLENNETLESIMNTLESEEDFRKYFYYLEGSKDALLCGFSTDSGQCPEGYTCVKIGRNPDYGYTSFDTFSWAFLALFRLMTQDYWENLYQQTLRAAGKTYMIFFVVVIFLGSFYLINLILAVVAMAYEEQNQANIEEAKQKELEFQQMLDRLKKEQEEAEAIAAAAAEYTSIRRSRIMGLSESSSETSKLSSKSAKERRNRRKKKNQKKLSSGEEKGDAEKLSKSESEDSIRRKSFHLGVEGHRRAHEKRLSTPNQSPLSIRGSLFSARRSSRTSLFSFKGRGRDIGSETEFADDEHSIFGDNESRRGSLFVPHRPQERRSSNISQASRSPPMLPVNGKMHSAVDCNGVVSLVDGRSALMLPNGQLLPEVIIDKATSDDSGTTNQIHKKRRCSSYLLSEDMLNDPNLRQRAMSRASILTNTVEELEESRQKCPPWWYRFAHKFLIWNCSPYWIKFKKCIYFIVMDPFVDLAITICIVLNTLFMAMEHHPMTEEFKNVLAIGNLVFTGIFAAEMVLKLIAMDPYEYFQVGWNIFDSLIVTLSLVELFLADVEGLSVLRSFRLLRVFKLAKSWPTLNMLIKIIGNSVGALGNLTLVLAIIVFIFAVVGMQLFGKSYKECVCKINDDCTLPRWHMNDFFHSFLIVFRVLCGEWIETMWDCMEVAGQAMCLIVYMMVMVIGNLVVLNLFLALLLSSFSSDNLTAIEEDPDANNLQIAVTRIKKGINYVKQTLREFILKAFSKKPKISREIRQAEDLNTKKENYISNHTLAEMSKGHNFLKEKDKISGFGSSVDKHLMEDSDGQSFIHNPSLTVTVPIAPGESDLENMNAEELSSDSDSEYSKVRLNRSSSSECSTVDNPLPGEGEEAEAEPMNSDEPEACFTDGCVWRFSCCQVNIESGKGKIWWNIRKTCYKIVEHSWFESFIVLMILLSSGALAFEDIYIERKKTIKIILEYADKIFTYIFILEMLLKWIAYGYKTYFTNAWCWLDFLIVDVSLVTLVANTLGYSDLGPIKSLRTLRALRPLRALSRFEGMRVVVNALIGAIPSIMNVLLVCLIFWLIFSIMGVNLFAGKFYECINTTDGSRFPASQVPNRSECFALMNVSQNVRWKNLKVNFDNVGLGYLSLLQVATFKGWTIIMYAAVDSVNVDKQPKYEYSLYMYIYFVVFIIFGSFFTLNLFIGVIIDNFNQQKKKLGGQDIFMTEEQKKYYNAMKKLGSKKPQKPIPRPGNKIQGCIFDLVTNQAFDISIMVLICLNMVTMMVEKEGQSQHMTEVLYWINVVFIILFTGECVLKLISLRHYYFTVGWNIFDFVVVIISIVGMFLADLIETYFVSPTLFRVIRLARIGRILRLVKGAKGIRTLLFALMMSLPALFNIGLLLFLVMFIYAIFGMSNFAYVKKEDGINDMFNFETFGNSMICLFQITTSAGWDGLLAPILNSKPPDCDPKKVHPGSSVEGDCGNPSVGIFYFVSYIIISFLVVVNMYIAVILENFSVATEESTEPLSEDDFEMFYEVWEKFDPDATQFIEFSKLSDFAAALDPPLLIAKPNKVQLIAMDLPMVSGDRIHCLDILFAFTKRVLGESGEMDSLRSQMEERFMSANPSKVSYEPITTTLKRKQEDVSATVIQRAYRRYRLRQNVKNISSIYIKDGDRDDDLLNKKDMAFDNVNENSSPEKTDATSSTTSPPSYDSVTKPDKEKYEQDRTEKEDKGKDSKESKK

| Compound | IC50 [nM] |
| --- | --- |
| Cc1cc(C(=O)N2CCC3(CC2)Oc2ccccc2-n2c(C#N)ccc23)ccc1[C@@](C)(O)CO [Compound 54] | < 2000 |
| N#Cc1ccc2n1-c1ccccc1OC21CCN(C(=O)c2ccc(C(F)(F)F)cc2)CC1 [Compound 481] | > 5000 |
| COc1cc(C(=O)N2CCC3(CC2)Oc2cc(F)ccc2-n2cccc23)ccc1OC[C@H](O)CO [Compound 606] | < 2000 |
| COC(=O)C(C)(C)c1ccc(C(=O)N2CCC3(CC2)Oc2ccccc2-c2c3cnn2C)cc1OC [Compound 403] | < 2000 |
| C[C@](O)(CO)c1ccc(C(=O)N2CCC3(CC2)Oc2ccccc2-n2c(C(F)(F)F)ccc23)cc1 [Compound 640] | < 2000 |
| COc1cc(C(=O)N2CCC3(CC2)Oc2ccccc2-n2c(C#N)ccc23)ccc1OC[C@@H](O)CO [Compound 680] | < 2000 |

From US20140171427A1, “Heterocyclic chromene-spirocyclic piperidine amides as modulators of ion channels” (VERTEX PHARMACEUTICALS INCORPORATED, priority 2010, published 2014)
